# Test results taken from patent US20260035382A1, “COMPOUNDS AS SUMO ACTIVATING ENZYME INHIBITORS” (WIGEN BIOMEDICINE TECHNOLOGY (SHANGHAI) CO., LTD., priority 2022, published 2026).
# pIC50: −log10 of the molar value.
# Target: SAE (Homo sapiens (Human), UniProt Q9UBT2)
# Assay: In vitro inhibitory activity assay against SAE (SUMO-2/3 immunofluorescence in HCT116 cells)
# Assay type: cell-based
# Settings: 6 h incubation, class symbols, read-out: SUMO IF IC50
# Experimental: HCT116 cells were seeded into a 96-well black transparent bottom plate at about 20000/well with 90 μL per well. The cells were incubated at 37° C. overnight for 24 h. The test compounds were 10-fold diluted to give a final concentration, and 10 μL of the diluted compounds was added to each well of the cell culture plate. The mixture was incubated at 37° C. for 6 h. The cells were then washed gently, the culture medium was discarded, and the cells were washed once with 200 μL of 0.1% o PBST. 50 μL of 4% PFA was added to each well, and the cells were immobilized at room temperature for 20 min, and then washed with PBS 2-3 times. 50 μL of 0.2% o Triton X-100 was added to each well, and the cells were left to stand at room temperature for 15 min and washed with 0.1% PBST 3 times. 100 uL of 3% BSA (0.6 g BSA+20 mL PBS) was added to each well, and the mixture was blocked at 37° C. for 30 min. After the blocking was completed, the liquid was removed and a primary antibody (SUMO-2/3 (181H8) Rabbit mAb, 1:400 dilution) was prepared with […]. 30 μL of the diluted primary antibody was added to each well, and the mixture was incubated at 4° C. overnight. The cells were washed 3 times with 200 μL of 0.1% o PBST. A FITC secondary antibody (Fluorescein (FITC)-conjugated Affinipure Goat Anti-Rabbit IgG (H+L), 1:300 dilution) was further prepared with 1% o BSA, and 40 μL of the diluted secondary antibody was added to each well. The mixture was incubated at room temperature in the dark for 2 h, and then the cells were washed 4 times with 0.1% PBST. The fluorescence signal of the sample was detected and compared to the DMSO group, and the inhibition rate and IC50 were calculated.
# Sequence of SAE (Q9UBT2 whole entry): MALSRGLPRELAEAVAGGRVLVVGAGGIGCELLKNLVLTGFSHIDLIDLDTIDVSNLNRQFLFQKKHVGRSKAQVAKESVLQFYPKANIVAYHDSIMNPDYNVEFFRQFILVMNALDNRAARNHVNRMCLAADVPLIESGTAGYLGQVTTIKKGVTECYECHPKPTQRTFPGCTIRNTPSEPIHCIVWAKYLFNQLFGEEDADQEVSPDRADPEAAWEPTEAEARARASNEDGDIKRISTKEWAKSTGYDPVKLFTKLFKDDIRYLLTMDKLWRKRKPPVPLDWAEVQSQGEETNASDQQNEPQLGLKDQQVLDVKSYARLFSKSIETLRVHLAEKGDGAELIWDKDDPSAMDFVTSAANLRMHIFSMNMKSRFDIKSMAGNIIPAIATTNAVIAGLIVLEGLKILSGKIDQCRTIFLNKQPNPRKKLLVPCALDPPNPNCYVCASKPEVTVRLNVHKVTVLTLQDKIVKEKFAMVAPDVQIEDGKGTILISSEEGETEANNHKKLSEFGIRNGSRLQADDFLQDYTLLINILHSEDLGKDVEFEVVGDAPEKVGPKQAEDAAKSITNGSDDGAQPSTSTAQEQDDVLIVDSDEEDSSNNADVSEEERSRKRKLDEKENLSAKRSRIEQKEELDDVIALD
# Sequence of SAE (Q9UBE0 whole entry partner): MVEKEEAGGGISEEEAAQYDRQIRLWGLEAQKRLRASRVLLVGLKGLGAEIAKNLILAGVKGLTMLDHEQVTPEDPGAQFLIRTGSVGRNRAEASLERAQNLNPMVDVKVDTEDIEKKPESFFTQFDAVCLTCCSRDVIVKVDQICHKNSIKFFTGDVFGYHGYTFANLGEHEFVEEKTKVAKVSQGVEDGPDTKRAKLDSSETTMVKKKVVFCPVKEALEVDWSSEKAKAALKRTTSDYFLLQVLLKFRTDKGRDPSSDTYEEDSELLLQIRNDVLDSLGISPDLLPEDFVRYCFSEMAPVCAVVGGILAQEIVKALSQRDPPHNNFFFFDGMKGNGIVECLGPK
row,SMILES,pIC50
1,NS(=O)(=O)OC[C@H]1C[C@@H](Nc2ncncc2C(=O)c2cc3c(s2)C(F)=C[C@@]32NCCc3ccc(Cl)cc32)C[C@@H]1O [Compound 155],< 6.70
2,NS(=O)(=O)OC[C@H]1C[C@@H](Nc2ncncc2C(=O)c2cc3c(s2)COCC32NCCc3cc(Cl)c(Cl)cc32)C[C@@H]1O (stereo partly drawn) [Compound 97],6.70 to 7.30
3,NS(=O)(=O)OC[C@H]1C[C@@H](Nc2ncncc2C(=O)c2cc3c(s2)C(F)(F)C[C@]32NCCc3ccc(Cl)cc32)C[C@@H]1O [Compound 162],6.70 to 7.30
4,NS(=O)(=O)OC[C@H]1C[C@@H](Nc2ncncc2C(=O)c2cc3c(s2)CNC[C@@]32NCCc3ccc(Cl)cc32)C[C@@H]1O [Compound 119],< 6.70
5,NS(=O)(=O)OC[C@H]1C[C@@H](Nc2ncncc2C(=O)c2cc3c(s2)CSC[C@@]32NCCc3ccccc32)C[C@@H]1O [Compound 86],< 6.70
6,NS(=O)(=O)CC[C@H]1C[C@@H](Nc2ncncc2C(=O)c2cc3c(s2)CCCC32NCCc3ccc(Cl)nc32)C[C@@H]1O (stereo partly drawn) [Compound 136],≥ 7.30
7,NS(=O)(=O)OC[C@H]1C[C@@H](Nc2ncncc2C(=O)c2cc3c(s2)C=C[C@@]32OCCc3ccc(Cl)cc32)C[C@@H]1O [Compound 296],< 6.70
8,NS(=O)(=O)OC[C@H]1C[C@@H](Nc2ncncc2C(=O)c2cc3c(s2)CSC[C@@]32NCCc3ncc(Cl)cc32)C[C@@H]1O [Compound 149],< 6.70
9,NS(=O)(=O)OC[C@H]1C[C@@H](Nc2ncncc2C(=O)c2cc3c(s2)CCC32NCCc3cc(Cl)c(Cl)cc32)C[C@@H]1O (stereo partly drawn) [Compound 70],6.70 to 7.30
10,NS(=O)(=O)OC[C@H]1C[C@@H](Nc2ncncc2C(=O)c2cc3c(s2)COC[C@@]32NCCc3cc(F)c(Cl)cc32)C[C@@H]1O [Compound 107],< 6.70
11,NS(=O)(=O)OC[C@H]1C[C@@H](Nc2ncncc2C(=O)c2cc3c(s2)OC[C@]32NCCc3ccccc32)C[C@@H]1O [Compound 57],6.70 to 7.30
12,NS(=O)(=O)OC[C@H]1C[C@@H](Nc2ncncc2C(=O)c2cc3c(s2)COCC32NCCc3ccc(Cl)cc32)C[C@@H]1O (stereo partly drawn) [Compound 19],6.70 to 7.30
13,NS(=O)(=O)OC[C@H]1C[C@@H](Nc2ncncc2C(=O)c2cc3c(s2)OC[C@@]32NCCc3ccccc32)C[C@@H]1O [Compound 56],< 6.70
14,NS(=O)(=O)OC[C@H]1C[C@@H](Nc2ncncc2C(=O)c2cc3c(s2)COCC32NCCc3c(F)cc(Cl)cc32)C[C@@H]1O (stereo partly drawn) [Compound 109],6.70 to 7.30
15,NS(=O)(=O)OC[C@H]1C[C@@H](Nc2ncncc2C(=O)c2cc3c(s2)CCC[C@]32OCCc3ccc(F)cc32)C[C@@H]1O [Compound 249],≥ 7.30
16,NS(=O)(=O)OC[C@H]1C[C@@H](Nc2ncncc2C(=O)c2cc3c(s2)CCC[C@]32NCCc3ccc(C4CC4)cc32)C[C@@H]1O [Compound 203],6.70 to 7.30
17,NS(=O)(=O)OC[C@H]1C[C@@H](Nc2ncncc2C(=O)c2cc3c(s2)CCC[C@]32NCC3(CC3)c3ccc(Cl)cc32)C[C@@H]1O [Compound 153],≥ 7.30
18,N#Cc1ccc2c(c1)[C@@]1(CCCc3sc(C(=O)c4cncnc4N[C@@H]4C[C@H](COS(N)(=O)=O)[C@@H](O)C4)cc31)OCC2 [Compound 252],≥ 7.30
19,Cc1cc2c(cc1Cl)C1(CCc3sc(C(=O)c4cncnc4N[C@@H]4C[C@H](COS(N)(=O)=O)[C@@H](O)C4)cc31)NCC2 (stereo partly drawn) [Compound 71],6.70 to 7.30
20,NS(=O)(=O)OC[C@H]1C[C@@H](Nc2ncncc2C(=O)c2cc3c(s2)CCC32NCCc3cc(F)c(Cl)c(F)c32)C[C@@H]1O (stereo partly drawn) [Compound 74],6.70 to 7.30
21,NS(=O)(=O)OC[C@H]1C[C@@H](Nc2ncncc2C(=O)c2cc3c(s2)CN(C2CC2)CC32OCCc3ccc(Cl)cc32)C[C@@H]1O (stereo partly drawn) [Compound 277],6.70 to 7.30
22,N#Cc1cc2c(cc1Cl)C1(CCCc3sc(C(=O)c4cncnc4N[C@@H]4C[C@H](COS(N)(=O)=O)[C@@H](O)C4)cc31)NCC2 (stereo partly drawn) [Compound 30],6.70 to 7.30
23,CN1Cc2sc(C(=O)c3cncnc3N[C@@H]3C[C@H](COS(N)(=O)=O)[C@@H](O)C3)cc2[C@]2(C1)OCCc1ccccc12 [Compound 255],6.70 to 7.30

row,SMILES,pIC50
1,NS(=O)(=O)OC[C@H]1C[C@@H](Nc2ncncc2C(=O)c2cc3c(s2)CCC[C@@]32OCCc3ccc(F)cc32)C[C@@H]1O [Compound 248],< 6.70
2,CCN1Cc2sc(C(=O)c3cncnc3N[C@@H]3C[C@H](COS(N)(=O)=O)[C@@H](O)C3)cc2C2(C1)OCCc1ccc(F)cc12 (stereo partly drawn) [Compound 262],6.70 to 7.30
3,NS(=O)(=O)OC[C@H]1C[C@@H](Nc2ncncc2C(=O)c2cc3c(s2)CCC32NCCc3ccc(C4CC4)cc32)C[C@@H]1O (stereo partly drawn) [Compound 65],6.70 to 7.30
4,NS(=O)(=O)OC[C@H]1C[C@@H](Nc2ncncc2C(=O)c2cc3c(s2)CSC[C@@]32NCCc3cnc(Cl)cc32)C[C@@H]1O [Compound 143],< 6.70
5,NS(=O)(=O)OC[C@H]1C[C@@H](Nc2ncncc2C(=O)c2cc3c(s2)CC[C@@]32OCCc3ccc(F)cc32)C[C@@H]1O [Compound 284],< 6.70
6,COc1ccc2c(c1)[C@@]1(CCCc3sc(C(=O)c4cncnc4N[C@@H]4C[C@H](COS(N)(=O)=O)[C@@H](O)C4)cc31)NCC2 [Compound 180],< 6.70
7,NS(=O)(=O)OC[C@H]1C[C@@H](Nc2ncncc2C(=O)c2cc3c(s2)CC=CC32NCCc3ccc(Cl)cc32)C[C@@H]1O (stereo partly drawn) [Compound 37],≥ 7.30
8,NS(=O)(=O)OC[C@H]1C[C@@H](Nc2ncncc2C(=O)c2cc3c(s2)CCC[C@]32NCCc3cnc(Cl)cc32)C[C@@H]1O [Compound 135],≥ 7.30
9,NS(=O)(=O)OC[C@H]1C[C@@H](Nc2ncncc2C(=O)c2cc3c(s2)CN(C2CC2)CC32NCCc3ccc(Cl)cc32)C[C@@H]1O (stereo partly drawn) [Compound 115],≥ 7.30
10,[2H]C1([2H])Cc2ccc(Cl)cc2C2(CCCc3sc(C(=O)c4cncnc4N[C@@H]4C[C@H](COS(N)(=O)=O)[C@@H](O)C4)cc32)N1 (stereo partly drawn) [Compound 196],6.70 to 7.30
11,[2H]C1([2H])Cc2ccc(Cl)cc2[C@@]2(C=Cc3sc(C(=O)c4cncnc4N[C@@H]4C[C@H](COS(N)(=O)=O)[C@@H](O)C4)cc32)N1 [Compound 237],≥ 7.30
12,CC(C)N1Cc2sc(C(=O)c3cncnc3N[C@@H]3C[C@H](COS(N)(=O)=O)[C@@H](O)C3)cc2[C@@]2(C1)OCCc1ccc(Cl)cc12 [Compound 272],< 6.70
13,NS(=O)(=O)OC[C@H]1C[C@@H](Nc2ncncc2C(=O)c2cc3c(s2)CCC32NCCc3ccc(Cl)cc32)C[C@@H]1O (stereo partly drawn) [Compound 46],6.70 to 7.30
14,NS(=O)(=O)OC[C@H]1C[C@@H](Nc2ncncc2C(=O)c2cc3c(s2)CC[C@]32NCC3(CC3)c3ccc(Cl)cc32)C[C@@H]1O [Compound 240],6.70 to 7.30
15,NS(=O)(=O)OC[C@H]1C[C@@H](Nc2ncncc2C(=O)c2cc3c(s2)OC[C@]32NCCc3ccc(F)cc32)C[C@@H]1O [Compound 60],6.70 to 7.30
16,NS(=O)(=O)OC[C@H]1C[C@@H](Nc2ncncc2C(=O)c2cc3c(s2)CCC[C@]32NCCc3ccncc32)C[C@@H]1O [Compound 214],6.70 to 7.30
17,NS(=O)(=O)OC[C@H]1C[C@@H](Nc2ncncc2C(=O)c2cc3c(s2)OCC[C@]32NCCc3ccc(Cl)cc32)C[C@@H]1O [Compound 218],6.70 to 7.30
18,NS(=O)(=O)OC[C@H]1C[C@@H](Nc2ncncc2C(=O)c2cc3c(s2)CC[C@]32OCCc3ccccc32)C[C@@H]1O [Compound 282],6.70 to 7.30
19,NS(=O)(=O)OC[C@H]1C[C@@H](Nc2ncncc2C(=O)c2cc3c(s2)CCC32NCCc3ccncc32)C[C@@H]1O (stereo partly drawn) [Compound 76],6.70 to 7.30
20,NS(=O)(=O)OC[C@H]1C[C@@H](Nc2ncncc2C(=O)c2cc3c(s2)CCCC32NCCc3ccccc32)C[C@@H]1O (stereo partly drawn) [Compound 1],6.70 to 7.30
21,Cc1cc2c(cc1Cl)[C@@]1(CCc3sc(C(=O)c4cncnc4N[C@@H]4C[C@H](COS(N)(=O)=O)[C@@H](O)C4)cc31)NCC2 [Compound 230],≥ 7.30
22,NS(=O)(=O)OC[C@H]1C[C@@H](Nc2ncncc2C(=O)c2cc3c(s2)CCC[C@@]32NCC3(CC3)c3ccc(Cl)cc32)C[C@@H]1O [Compound 152],< 6.70

# Same assay, conditions: 6 h incubation, numeric values, read-out: SUMO IF IC50
row,SMILES,pIC50
1,NS(=O)(=O)OC[C@H]1C[C@@H](Nc2ncncc2C(=O)c2cc3c(s2)CN(CC(F)(F)F)C[C@@]32NCCc3ccc(Cl)cc32)C[C@@H]1O [Compound 188],< 6.00
2,CC(C)N1Cc2sc(C(=O)c3cncnc3N[C@@H]3C[C@H](COS(N)(=O)=O)[C@@H](O)C3)cc2[C@]2(C1)NCCc1ccc(Cl)cc12 [Compound 186],7.79
3,NS(=O)(=O)OC[C@H]1C[C@@H](Nc2ncncc2C(=O)c2cc3c(s2)CCC[C@@]32NCCc3ccc(F)cc32)C[C@@H]1O [Compound 8],< 6.00
4,C#CCN1Cc2sc(C(=O)c3cncnc3N[C@@H]3C[C@H](COS(N)(=O)=O)[C@@H](O)C3)cc2[C@]2(C1)NCCc1ccc(Cl)cc12 [Compound 195],7.67
5,NS(=O)(=O)OC[C@H]1C[C@@H](Nc2ncncc2C(=O)c2cc3c(s2)CC[C@@]32NCCc3ccccc32)C[C@@H]1O [Compound 44],< 6.00
6,CN1Cc2sc(C(=O)c3cncnc3N[C@@H]3C[C@H](COS(N)(=O)=O)[C@@H](O)C3)cc2[C@@]2(C1)NCCc1ccc(Cl)cc12 [Compound 113],< 6.00
